Data as given in PMC6979384, “Characterization of the plant homeodomain (PHD) reader family for their histone tail interactions” (Epigenetics & Chromatin, 2020).

How the values were obtained:
Assay in all cases: Histone peptide microarray
Assay type in all cases: binding, human
Conditions in all cases: sheet "Array Heatmap"; GST-tagged reader; histone peptide array, total n = 4
BAZ2B = tested on: BAZ2B
Source text: (§1) To more comprehensively define the histone interactions of the 31 PHD readers identified from the domain microarray analyses, we probed each on an alternate microarray platform containing a library of 293 synthetic histone peptides with single or combinatorial PTMs (Additional file 2: Figure S4 and Additional file 3: Table S2).
(§2) The 31 GST-tagged PHD readers identified in the PHD finger domain array were expressed and purified as previously. Histone peptide arrays and peptide pulldown assays were conducted as recently described (specifically, the optimized protocol from Petell et al. for the former).
(§3) Supplementary file 13072_2020_328_MOESM3_ESM.xlsx: Additional file 3: Table S2. […] Excel Tab Peptide List is a compiled list of the entire 293 histone peptide library with amino acid sequence ranges. […] Each number corresponds to the peptide number designated in Peptide List. Excel Tab Average Signals is a compiled set of binding data: chromatin reader at 0.5 μM vs. entire 293 peptide library. Data is presented as the average and standard deviation of 4 replicates. The average signals are colored to indicate signal intensity with green being strong and white being weak/low. […] Key: red= stronger relative binding; blue = weaker relative binding. Excel Tab Array info summary is a table summarizing the domains, sequence coverage, array signal range, and noise for each of the GST-tagged readers assayed on the peptide microarrays.

PHF21A = tested on: PHF21A
Source text: as §1, §2, §3

BPTF (PB) = tested on: BPTF (PB)
Source text: as §1, §2, §3

KDM7A = tested on: KDM7A
Source text: as §1, §2, §3

KDM5B (3) = tested on: KDM5B (3)
Source text: as §1, §2, §3

PHF8 = tested on: PHF8
Source text: as §1, §2, §3

KDM5A (3) = tested on: KDM5A (3)
Source text: as §1, §2, §3

KDM5B (1) = tested on: KDM5B (1)
Source text: as §1, §2, §3

TRIM66 (PB) = tested on: TRIM66 (PB)
Source text: as §1, §2, §3

PHRF1 (RP) = tested on: PHRF1 (RP)
Source text: as §1, §2, §3

ING2 = tested on: ING2
Source text: as §1, §2, §3

RAG2 = tested on: RAG2
Source text: as §1, §2, §3

DIDO1 = tested on: DIDO1
Source text: as §1, §2, §3

AIRE (PP) = tested on: AIRE (PP)
Source text: as §1, §2, §3

TAF3 = tested on: TAF3
Source text: as §1, §2, §3

ING5 = tested on: ING5
Source text: as §1, §2, §3

PHF23 = tested on: PHF23
Source text: as §1, §2, §3

ING4 = tested on: ING4
Source text: as §1, §2, §3

CHD5 (PCC) = tested on: CHD5 (PCC)
Source text: as §1, §2, §3

PHF2 = tested on: PHF2
Source text: as §1, §2, §3

DPF2 (PPC2W2) = tested on: DPF2 (PPC2W2)
Source text: as §1, §2, §3

ING3 = tested on: ING3
Source text: as §1, §2, §3

SP140L = tested on: SP140L
Source text: as §1, §2, §3

MORC3 (CW) = tested on: MORC3 (CW)
Source text: as §1, §2, §3

KDM4C (TTP) = tested on: KDM4C (TTP)
Source text: as §1, §2, §3

MLL5 = tested on: MLL5
Source text: as §1, §2, §3

ING1 = tested on: ING1
Source text: as §1, §2, §3

PHF13 = tested on: PHF13
Source text: as §1, §2, §3

CHD4 (PPCC) = tested on: CHD4 (PPCC)
Source text: as §1, §2, §3

CHD5 (PPCC) = tested on: CHD5 (PPCC)
Source text: as §1, §2, §3

KDM5A (1) = tested on: KDM5A (1)
Source text: as §1, §2, §3

Substance	Array Heatmap signal, BAZ2B (BAZ2B)	Array Heatmap signal, PHF21A (PHF21A)	Array Heatmap signal, BPTF (PB) (BPTF (PB))	Array Heatmap signal, KDM7A (KDM7A)	Array Heatmap signal, KDM5B (3) (KDM5B (3))	Array Heatmap signal, PHF8 (PHF8)	Array Heatmap signal, KDM5A (3) (KDM5A (3))	Array Heatmap signal, KDM5B (1) (KDM5B (1))	Array Heatmap signal, TRIM66 (PB) (TRIM66 (PB))	Array Heatmap signal, PHRF1 (RP) (PHRF1 (RP))	Array Heatmap signal, ING2 (ING2)	Array Heatmap signal, RAG2 (RAG2)	Array Heatmap signal, DIDO1 (DIDO1)	Array Heatmap signal, AIRE (PP) (AIRE (PP))	Array Heatmap signal, TAF3 (TAF3)	Array Heatmap signal, ING5 (ING5)	Array Heatmap signal, PHF23 (PHF23)	Array Heatmap signal, ING4 (ING4)	Array Heatmap signal, CHD5 (PCC) (CHD5 (PCC))	Array Heatmap signal, PHF2 (PHF2)	other results
H3.3K18ac + K23ac + K27ac + S28p: H3.3 15-34	0.4455	0.4374	0.3427	0.3117	0.4567	0.3574	0.436	0.64	0.5994	0.4303	0.6018	0.2492	0.747	0.4033	0.2571	0.3405	0.5591	0.4374	0.7419	0.5396	Array Heatmap signal, DPF2 (PPC2W2) (DPF2 (PPC2W2)): 0.6362; Array Heatmap signal, ING3 (ING3): 0.4727; Array Heatmap signal, SP140L (SP140L): 0.326; Array Heatmap signal, MORC3 (CW) (MORC3 (CW)): 0.3503; Array Heatmap signal, KDM4C (TTP) (KDM4C (TTP)): 0.4483; Array Heatmap signal, MLL5 (MLL5): 0.5576; Array Heatmap signal, ING1 (ING1): 0.5496; Array Heatmap signal, PHF13 (PHF13): 0.5819; Array Heatmap signal, CHD4 (PPCC) (CHD4 (PPCC)): 0.5345; Array Heatmap signal, CHD5 (PPCC) (CHD5 (PPCC)): 0.5304; Array Heatmap signal, KDM5A (1) (KDM5A (1)): 0.4461
H3R2me2s + K4me3 + K9ac + K14ac + K18ac: H3 1-20	0.3825	0.377	0.2994	0.2957	0.4309	0.402	0.5269	0.5889	0.4734	0.3639	0.6168	0.309	0.6935	0.3152	0.2641	0.2654	0.5367	0.356	0.6375	0.5721	Array Heatmap signal, DPF2 (PPC2W2) (DPF2 (PPC2W2)): 0.5621; Array Heatmap signal, ING3 (ING3): 0.3864; Array Heatmap signal, SP140L (SP140L): 0.3075; Array Heatmap signal, MORC3 (CW) (MORC3 (CW)): 0.4658; Array Heatmap signal, KDM4C (TTP) (KDM4C (TTP)): 0.3487; Array Heatmap signal, MLL5 (MLL5): 0.5797; Array Heatmap signal, ING1 (ING1): 0.5042; Array Heatmap signal, PHF13 (PHF13): 0.4921; Array Heatmap signal, CHD4 (PPCC) (CHD4 (PPCC)): 0.4966; Array Heatmap signal, CHD5 (PPCC) (CHD5 (PPCC)): 0.4157; Array Heatmap signal, KDM5A (1) (KDM5A (1)): 0.3527
